In patent US9969709B2, “Guanidinobenzoic acid ester compound” (Takeda Pharmaceutical Company Limited, priority 2013, dated 2018):

Key:
[1] = molecular target: T1, human recombinant trypsin (rh-trypsin) (Homo sapiens, UniProt P07477); test: Trypsin inhibitory activity, human recombinant trypsin, BZiPAR fluorescent substrate; type: biochemical; conditions: 30 min at room temperature, read-out: r-h Trypsin inhibitory activity (IC50)
T1 construct: purchased Wako Pure Chemical Industries, Ltd. 206-17171
Experimental: (§1) 1. Confirmation of Trypsin Inhibitory Activity in Humans and Mice In the experiment, human recombinant trypsin (rh-trypsin; manufactured by Wako Pure Chemical Industries, Ltd.), cat. #206-17171) and mouse trypsin (m-trypsin; purified from the mouse small intestine contents by the present inventors) were used. The method for purifying m-trypsin from the contents of the mouse small intestine is shown below. The compound was dissolved in dimethyl sulfoxide (DMSO), and diluted to an arbitrary concentration (A). A was 100-fold diluted with a buffer (0.1 M Tris (pH 8.0), 0.15 M NaCl, 10 mM CaCl2, 0.05% Brij35) (B). The rh-trypsin was diluted with a buffer to 0.088 μg/mL, and for the m-trypsin, the purified fraction liquid was 50-fold diluted with the buffer (C). […] A BZiPAR solution (Rhodamine Reference Substrate) which is substrate for the trypsin enzyme was diluted with the buffer to […] (D). 5 μL of B, 5 μL of C, and 10 μL of D were added to a 384-well plate, and incubated at room temperature for 30 minutes. Fluorescent signals were detected at a maximum excitement (Ex)/fluorescent wavelength (Em)=497 nm/520 nm using a Tecan Safire Fluorometer. […] Based on the obtained inhibitory rates, the trypsin inhibitory activities (IC50 values, nM) were calculated from the non-linear regression.

[2] = tested on: T2, mouse trypsin (m-trypsin); test: Trypsin inhibitory activity, mouse trypsin purified from small intestine contents, BZiPAR fluorescent substrate; type: biochemical; conditions: 30 min at room temperature
T2 construct: mouse trypsin (m-trypsin)
Description: 1. Confirmation of Trypsin Inhibitory Activity in Humans and Mice
In the experiment, human recombinant trypsin (rh-trypsin; manufactured by Wako Pure Chemical Industries, Ltd.), cat. #206-17171) and mouse trypsin (m-trypsin; purified from the mouse small intestine contents by the present inventors) were used. The method for purifying m-trypsin from the contents of the mouse small intestine is shown below.
The small intestine contents and the gastrointestinal tract obtained from 10 mice were homogenized in phosphate buffer saline (PBS) using Polytron, and subjected to centrifugation several times at 15,000×g for 10 minutes. The supernatant was mixed at 4° C. for 16 hours with a Benzamidine Sepharose 4 Fast Flow Resin (GE Healthcare: #17-5123-10). After washing the resin with PBS, m-trypsin was eluted with a glycine buffer (pH 3.0) to carry out purification. It was confirmed by Western blot analysis that the obtained purified fraction was recognized as an Anti-mouse Trypsin Antibody (Santa Cruz Biotechnology, Inc.: sc-67388). The method for measuring the trypsin inhibiting activity is shown below.
as §1, with “The” for “1. Confirmation of Trypsin Inhibitory Activity in Humans and Mice In the experiment, human recombinant trypsin (rh-trypsin; manufactured by Wako Pure Chemical Industries, Ltd.), cat. #206-17171) and mouse trypsin (m-trypsin; purified from the mouse small intestine contents by the present inventors) were used. The method for purifying m-trypsin from the contents of the mouse small intestine is shown below. The”

ICR mice = test: Test of increase in fecal protein concentration using mice; type: in vivo, mouse; conditions: Mus musculus, po, 9 h, 5 mg/kg oral, male ICR mice, feces collected 3 to 9 hours after feeding started, control group = 1; read-out: Fecal protein, Folds (vs. control)
Experimental: 2. Test of Increase in Fecal Protein Concentration Using Mice
For the experiment, 6-week old male ICR mice were used. The experiment was carried out in five mice per group. After fasting the mice for 15 hours, the control group was forcibly orally administered with a 0.5% methyl cellulose (MC) solution, and the test drug group was forcibly orally administered (5 mg/kg) with a solution or suspension obtained by dissolving or suspending the compound in the 0.5% MC solution. The fasting was stopped immediately thereafter, free feeding (CE-2) was started, and then the feces were collected from after 3 hours to after 9 hours, and weighed. All of the obtained feces were suspended in 6 mL of distilled water, and centrifuged at 1,940×g for 10 minutes. The protein concentration in the obtained supernatant was measured by a Bradford method, and the amount of the protein in 1 g of feces was calculated by dividing the protein concentration in the feces by the total weight of feces. Further, the efficacy was investigated from the ratio to the control group. For the compounds that were evaluated multiple times, the average values were calculated.
The results of the activities with an increase in Fecal Protein, assuming a value for the control group as 1, are shown in Table 2.

Wistar rats = test: Rat uninephrectomy doxorubicin (DXR)-induced nephropathy model (renal function reduced model); type: in vivo; conditions: 10 mg/kg oral twice daily, week 3, vs control group
Experimental: 3. Test of Rat Uninephrectomy Doxorubicin (DXR)-Induced Nephropathy Model (Renal Function Reduced Model) Uninephrectomy was performed in the left kidney of 10-week old male Wistar rats, and one week later, DXR (5 mg/kg) was administered to the rats via the caudal vein to induce a nephropathy model. The experiment was carried out in ten rats per group. During the period of administering the compound, the rats were fed with diet only in daytime, while fasted in nighttime. A test compound (10 mg/kg) was suspended in a 0.5% methylcellulose (MC) solution from the day after the preparation of the model, and was forcibly orally administered twice (morning and night) daily. To each of a sham (normal) group and a control group, 0.5% MC was forcibly orally administered. At 1, 2, and 3 weeks after the start of administration of the test compound, 24-hour urine collection was each performed to measure the amount of the protein excretion in urine. Blood collection was performed after the end of the urine collection at week 3, and the concentration of creatinine in plasma was measured.

Structure (SMILES)	IC50 [1]	IC50 [2]	response vs control in vivo at 5 mg/kg (ICR mice)	inhibitory rate of the amount of protein excretion in urine (Wistar rats)	inhibitory rate of the creatinine concentration in plasma (Wistar rats)
Cl.N=C(N)Nc1ccc(C(=O)Oc2ccc3c(c2)CCCC3CC(=O)N(CC(=O)O)Cc2cccc(C(=O)O)c2)cc1 (centres unmarked) [Example 2, 3-{[({6-[(4-carbamimidamnidobenzoyl)oxy]-1,2,3,4-tetrahydronaphthalen-1-yl}acetyl)(carboxymethyl)amino]methyl}benzoic acid monohydrochloride]	0.4 nM	0.51 nM	255%	about 42%	about 42%
N=C(N)Nc1ccc(C(=O)Oc2ccc3c(c2)CCCC3CC(=O)N(Cc2ccccc2)CC(CC(=O)O)CC(=O)O)cc1 (centres unmarked) [Example 44]	0.2 nM	0.2 nM	172%	–	–
N=C(N)Nc1ccc(C(=O)Oc2ccc3c(c2)CCC3CC(=O)N(CC(=O)O)[C@@H](Cc2ccccc2)C(=O)O)cc1 (some centres unmarked) [Example 46]	0.25 nM	0.23 nM	184%	–	–
N=C(N)Nc1ccc(C(=O)Oc2ccc3c(C(=O)N[C@@H](Cc4ccc(C(=O)O)cc4)C(=O)O)csc3c2)cc1 [Example 47]	0.26 nM	0.29 nM	191%	–	–
N=C(N)Nc1ccc(C(=O)Oc2ccc3c(c2)CCC3CC(=O)N(CC(=O)O)Cc2csc(C(=O)O)c2)cc1 (centres unmarked) [Example 49]	0.37 nM	0.45 nM	207%	–	–
N=C(N)Nc1ccc(C(=O)Oc2ccc3c(c2)CCC3CC(=O)N(CC(=O)O)Cc2ccc3sc(C(=O)O)cc3c2)cc1 (centres unmarked) [Example 51]	0.34 nM	0.38 nM	166%	–	–
N=C(N)Nc1ccc(C(=O)Oc2ccc3c(C(=O)N(CC(=O)O)Cc4csc(C(=O)O)c4)cccc3c2)cc1 [Example 57]	0.19 nM	0.38 nM	225%	–	–
N=C(N)Nc1ccc(C(=O)Oc2ccc3c(C(=O)N(CC(=O)O)Cc4cccc(C(=O)O)c4)csc3c2)cc1 [Example 60]	0.33 nM	0.31 nM	226%	–	–

Further lines, with some results ahead:

IC50 [1]	IC50 [2]	Structure (SMILES)	response vs control in vivo at 5 mg/kg (ICR mice)	inhibitory rate of the amount of protein excretion in urine (Wistar rats)	inhibitory rate of the creatinine concentration in plasma (Wistar rats)
0.36 nM	0.54 nM	N=C(N)Nc1ccc(C(=O)Oc2ccc3c(c2)CCC(C(=O)N(CCC(=O)O)Cc2csc(C(=O)O)c2)C3)cc1 (centres unmarked) [Example 45]	138%	–	–
0.36 nM	0.44 nM	C[C@H](C(=O)O)N(Cc1csc(C(=O)O)c1)C(=O)CC1CCc2cc(OC(=O)c3ccc(NC(=N)N)cc3)ccc21 (some centres unmarked) [Example 48]	179%	–	–
0.28 nM	0.43 nM	N=C(N)Nc1ccc(C(=O)Oc2ccc3c(c2)CCC3CC(=O)N(CCC(=O)O)Cc2csc(C(=O)O)c2)cc1 (centres unmarked) [Example 50]	156%	–	–
0.43 nM	0.55 nM	N=C(N)Nc1ccc(C(=O)Oc2ccc3c(c2)CCC3CC(=O)N(CC(=O)O)Cc2ccc(CC(=O)O)cc2)cc1 (centres unmarked) [Example 52]	178%	–	–
0.54 nM	0.6 nM	N=C(N)Nc1ccc(C(=O)Oc2ccc3c(c2)CCC3CC(=O)N[C@@H](Cc2ccc(C(=O)O)cc2)C(=O)O)cc1 (some centres unmarked) [Example 53]	164%	–	–
0.29 nM	0.46 nM	N=C(N)Nc1ccc(C(=O)Oc2ccc3c(C(=O)N(CCC(=O)O)Cc4csc(C(=O)O)c4)csc3c2)cc1 [Example 54]	170%	–	–
0.35 nM	0.47 nM	N=C(N)Nc1ccc(C(=O)Oc2ccc3c(c2)CCCC3CC(=O)N(CCC(=O)O)Cc2csc(C(=O)O)c2)cc1 (centres unmarked) [Example 55]	230%	–	–
0.35 nM	0.59 nM	N=C(N)Nc1ccc(C(=O)Oc2ccc3cc(C(=O)N(CCC(=O)O)Cc4csc(C(=O)O)c4)ccc3c2)cc1 [Example 56]	145%	–	–
0.68 nM	0.74 nM	N=C(N)Nc1ccc(C(=O)Oc2ccc3c(c2)CCC(C(=O)N(CC(=O)O)Cc2cccc(C(=O)O)c2)C3)cc1 (centres unmarked) [Example 58]	218%	–	–
0.71 nM	0.87 nM	N=C(N)Nc1ccc(C(=O)Oc2ccc3cc(C(=O)N(CC(=O)O)Cc4csc(C(=O)O)c4)sc3c2)cc1 [Example 59]	164%	–	–
